Test results as given in patent US10626125B2, “1,1,1-trifluoro-3-hydroxypropan-2-yl carbamate derivatives as MAGL inhibitors” (PFIZER INC., priority 2017, dated 2020).
Read-outs that look alike come from different tables or passages of the source.

What was measured:
[1] = molecular target: T1, human recombinant Monoacylglycerol Lipase (Homo sapiens, UniProt Q99685); assay: MAGL enzymatic assay (IC50; 7-HCA substrate added at T=0 min or T=30 min); type: biochemical; conditions: geometric mean of 2-5 determinations unless otherwise indicated
T1 sequence (Q99685 1-303): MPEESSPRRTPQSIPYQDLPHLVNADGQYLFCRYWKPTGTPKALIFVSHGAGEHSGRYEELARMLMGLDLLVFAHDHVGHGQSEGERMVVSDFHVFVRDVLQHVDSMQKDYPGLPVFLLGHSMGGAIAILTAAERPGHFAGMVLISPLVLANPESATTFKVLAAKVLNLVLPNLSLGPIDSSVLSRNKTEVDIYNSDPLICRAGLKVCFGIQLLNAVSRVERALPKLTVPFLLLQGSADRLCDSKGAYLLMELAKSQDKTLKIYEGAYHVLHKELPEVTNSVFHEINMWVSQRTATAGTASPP

[2] = molecular target: T1, human recombinant Monoacylglycerol Lipase; assay: MAGL inactivation (kinact/KI from enzyme progress curves, T=0 min protocol); conditions: from plot of Kobs vs. compound concentration, geometric mean of 2-5 determinations (b: ≥6)
[3] = MAGL (T = 30 min) IC50, substrate 7-HCA added after 30 minute incubation (T=30 min)
[4] = substrate 7-HCA added immediately (T=0 min), read-out: MAGL (T = 0 min) IC50

Structure (SMILES)	IC50 [1, 3] [nM]	IC50 [1, 4] [nM]	MAGL kinact/KI [2]
O=C(O[C@H](CO)C(F)(F)F)N1CCC2(CC1)CC(n1ccc(C(F)(F)F)n1)CO2 (single isomer, unassigned) [Example 53]	1	9	66900 1/s per M
N#Cc1ccc([C@H]2COC3(CCN(C(=O)O[C@H](CO)C(F)(F)F)CC3)C2)cc1F [Example 27, (2R)-1,1,1-trifluoro-3-hydroxypropan-2-yl (3S)-3-(4-cyano-3-fluorophenyl)-1-oxa-8-azaspiro[4.5]decane-8-carboxylate]	3	17	22800 1/s per M
O=C(O[C@H](CO)C(F)(F)F)N1CCC2(CC1)CC(c1ccc(C(F)F)nc1)C2 [Example 82, (2R)-1,1,1-trifluoro-3-hydroxypropan-2-yl 2-[6-(difluoromethyl)pyridin-3-yl]-7-azaspiro[3.5]nonane-7-carboxylate]	2	24	19300 1/s per M
COc1cc(C2CC3(CCN(C(=O)O[C@H](CO)C(F)(F)F)CC3)C2)ccn1 [Example 47, (2R)-1,1,1-trifluoro-3-hydroxypropan-2-yl 2-(2-methoxypyridin-4-yl)-7-azaspiro[3.5]nonane-7-carboxylate]	2	17	17100 1/s per M
CN(C(=O)C1CC1)C1CC2(CCN(C(=O)O[C@H](CO)C(F)(F)F)CC2)C1 [Example 55, (2R)-1,1,1-trifluoro-3-hydroxypropan-2-yl 2-[(cyclopropylcarbonyl)(methyl)amino]-7-azaspiro[3.5]nonane-7-carboxylate]	2	30	15700 1/s per M
O=C(O[C@H](CO)C(F)(F)F)N1CCC2(CC1)CC(Oc1ccccn1)C2 [Example 87, (2R)-1,1,1-trifluoro-3-hydroxypropan-2-yl 2-(pyridin-2-yloxy)-7-azaspiro[3.5]nonane-7-carboxylate]	2	26	32600 1/s per M
O=C(O[C@H](CO)C(F)(F)F)N1CCC2(CC1)CC(n1cc(C3CC3)cn1)CO2 (mixture of isomers) [Example 23, (2R)-1,1,1-trifluoro-3-hydroxypropan-2-yl 3-(4-cyclopropyl-1H-pyrazol-1-yl)-1-oxa-8-azaspiro[4.5]decane-8-carboxylate, mixture of diastereomers]	9	68	9650 1/s per M
O=C(O[C@H](CO)C(F)(F)F)N1CCC2(CC1)CC(n1cc(C3CC3)cn1)C2 [Example 49, (2R)-1,1,1-trifluoro-3-hydroxypropan-2-yl 2-(4-cyclopropyl-1H-pyrazol-1-yl)-7-azaspiro[3.5]nonane-7-carboxylate]	1	13	77400 1/s per M
CN([C@H]1COC2(CCN(C(=O)O[C@H](CO)C(F)(F)F)CC2)C1)S(=O)(=O)C(C)(C)C [Example 6, (2R)-1,1,1-Trifluoro-3-hydroxypropan-2-yl (3R)-3-[(tert-butylsulfonyl)(methyl)amino]-1-oxa-8-azaspiro[4.5]decane-8-carboxylate]	8	98	6630^b 1/s per M
N#Cc1cccc(C2CC3(CCN(C(=O)O[C@H](CO)C(F)(F)F)CC3)C2)c1 [Example 46, (2R)-1,1,1-trifluoro-3-hydroxypropan-2-yl 2-(3-cyanophenyl)-7-azaspiro[3.5]nonane-7-carboxylate]	1	4	167000 1/s per M
O=C(O[C@H](CO)C(F)(F)F)N1CCC2(CC1)CC(c1ccc(F)cn1)CO2 (single isomer, unassigned) [Example 17]	26	297	1390^b 1/s per M
N#Cc1cccc(OC2CC3(CCN(C(=O)O[C@H](CO)C(F)(F)F)CC3)C2)c1 [Example 86, (2R)-1,1,1-trifluoro-3-hydroxypropan-2-yl 2-(3-cyanophenoxy)-7-azaspiro[3.5]nonane-7-carboxylate]	0.7	9	50100 1/s per M

Continued, values first:

IC50 [1, 3] [nM]	IC50 [1, 4] [nM]	MAGL kinact/KI [2]	Structure (SMILES)
13	113	2770 1/s per M	CN([C@H]1COC2(CCN(C(=O)O[C@H](CO)C(F)(F)F)CC2)C1)S(=O)(=O)CC1CC(F)(F)C1 [Example 57, (2R)-1,1,1-trifluoro-3-hydroxypropan-2-yl (3R)-3-[{[(3,3-difluorocyclobutyl)methyl]sulfonyl}(methyl)amino]-1-oxa-8-azaspiro[4.5]decane-8-carboxylate]
1	9	75400 1/s per M	O=C(O[C@H](CO)C(F)(F)F)N1CCC2(CC1)CC(c1cc(C(F)F)ccn1)C2 [Example 78, (2R)-1,1,1-trifluoro-3-hydroxypropan-2-yl 2-[4-(difluoromethyl)pyridin-2-yl]-7-azaspiro[3.5]nonane-7-carboxylate]
0.5	9	71700 1/s per M	O=C(O[C@H](CO)C(F)(F)F)N1CCC2(CC1)CC(Oc1cccc(C(F)F)n1)C2 [Example 90, (2R)-1,1,1-trifluoro-3-hydroxypropan-2-yl 2-{[6-(difluoromethyl)pyridin-2-yl]oxy}-7-azaspiro[3.5]nonane-7-carboxylate]
4	40	13800 1/s per M	CN(C(=O)Cc1ccccc1)C1CC2(CCN(C(=O)O[C@H](CO)C(F)(F)F)CC2)C1 [Example 44, (2R)-1,1,1-trifluoro-3-hydroxypropan-2-yl 2-[methyl(phenylacetyl)amino]-7-azaspiro[3.5]nonane-7-carboxylate]
27	239	1440 1/s per M	O=C(O[C@H](CO)C(F)(F)F)N1CCC2(CC1)CC(c1ccc(C(F)F)nc1)CO2 (single isomer, unassigned) [Example 36]
24	200	1610 1/s per M	N#Cc1ccc(C2COC3(CCN(C(=O)O[C@H](CO)C(F)(F)F)CC3)C2)nc1 (single isomer, unassigned) [Example 38]
1	4	200000 1/s per M	CC(C)(C)c1ccn(C2COC3(CCN(C(=O)O[C@H](CO)C(F)(F)F)CC3)C2)n1 (single isomer, unassigned) [Example 52]
8	65	4710 1/s per M	O=C(O[C@H](CO)C(F)(F)F)N1CCC2(CC1)CC(Cn1cc(C(F)(F)F)cn1)CO2 (single isomer, unassigned) [Example 4]
4	48	7920 1/s per M	O=C(O[C@H](CO)C(F)(F)F)N1CCC2(CC1)CC(c1ccc(F)cc1)CO2 (single isomer, unassigned) [Example 34]
0.3	4	128000 1/s per M	O=C(O[C@H](CO)C(F)(F)F)N1CCC2(CC1)CC(Oc1cccc(F)c1)C2 [Example 51, (2R)-1,1,1-trifluoro-3-hydroxypropan-2-yl 2-(3-fluorophenoxy)-7-azaspiro[3.5]nonane-7-carboxylate]
0.8	8	31900 1/s per M	O=C(O[C@H](CO)C(F)(F)F)N1CCC2(CC1)CC(Oc1cc(C(F)F)ccn1)C2 [Example 89, (2R)-1,1,1-trifluoro-3-hydroxypropan-2-yl 2-{[4-(difluoromethyl)pyridin-2-yl]oxy}-7-azaspiro[3.5]nonane-7-carboxylate]
17	184	3250 1/s per M	N#Cc1ccc(F)c(C2COC3(CCN(C(=O)O[C@H](CO)C(F)(F)F)CC3)C2)c1 (single isomer, unassigned) [Example 29]
2	20	25500 1/s per M	O=C(O[C@H](CO)C(F)(F)F)N1CCC2(CC1)CC(c1ccccc1F)CO2 (single isomer, unassigned) [Example 25]
9	92	5010^b 1/s per M	O=C(O[C@H](CO)C(F)(F)F)N1CCC2(CC1)CC(c1ccc(F)cn1)CO2 (single isomer, unassigned) [Example 16]
0.9	9	88300 1/s per M	O=C(O[C@H](CO)C(F)(F)F)N1CCC2(CC1)CC(c1ccnc(C(F)(F)F)c1)C2 [Example 68, (2R)-1,1,1-trifluoro-3-hydroxypropan-2-yl 2-[2-(trifluoromethyl)pyridin-4-yl]-7-azaspiro[3.5]nonane-7-carboxylate]
1	16	33000 1/s per M	O=C(O[C@H](CO)C(F)(F)F)N1CCC2(CC1)CC(Oc1ccc(F)cn1)C2 [Example 88, (2R)-1,1,1-trifluoro-3-hydroxypropan-2-yl 2-[(5-fluoropyridin-2-yl)oxy]-7-azaspiro[3.5]nonane-7-carboxylate]
4	45	20400 1/s per M	O=C(O[C@H](CO)C(F)(F)F)N1CCC2(CC1)CC(c1ccccn1)C2 [Example 81, (2R)-1,1,1-trifluoro-3-hydroxypropan-2-yl 2-(pyridin-2-yl)-7-azaspiro[3.5]nonane-7-carboxylate]
